# Marks after values point to notes of the source that are not given here. Starred links: 1 amine or outer side, 2 acyl side, 3 side chain; linkers in the order of their positions; H or OH if unused. Non-standard residues stand in square brackets, D forms with d. Residues, ends and D or L forms follow the SMILES beside them. Groups on a side chain read outwards from the residue. *: point of attachment. C20 diacid = O=C(O)CCCCCCCCCCCCCCCCCCC(=O)*; C18 diacid = O=C(O)CCCCCCCCCCCCCCCCC(=O)*; γGlu = O=C(O)[C@H](CCC(=O)[*:2])N[*:1]; εLys = N[C@@H](CCCCN[*:1])C(=O)[*:2]; Aib = CC(C)(N)C(=O)O
# Test: Pharmacokinetic study in dogs, oral dosing of tablet compositions with SNAC
# Type: in vivo, Beagle dogs
# Conditions: dog, in vivo, po
# Procedure: The purpose of this example is to determine the half-life and plasma exposure in vivo of the compounds of the present invention after p.o. administration to beagle dogs, i.e. the terminal half-life and concentration of test substance that reaches circulation with time. This is done in a pharmacokinetic (PK) study, where these parameters of the compound in question are determined. By terminal half-life is generally meant the period of time it takes to halve a certain plasma concentration, measured after the initial distribution phase.
# The amount of SNAC in the tablet composition was 100-300 mg, the amount of magnesium stearate in the tablet composition was 7.7 mg, and the target amount of each test substance in the tablet composition was 3-4 mg.
# Male beagle dogs, 1-7 years of age and weighing 9-17 kg during the study period, were included in the study. The dogs were dosed in a fasting state. The dogs were group housed in pens (12 hours light: 12 hours dark), and fed individually and restrictedly once daily with Royal Canin Medium Adult dog food (Royal Canin Products, China Branch, or Brogaarden A/S, Denmark). The dogs were used for repeated PK studies with a suitable wash-out period between successive dosing. An appropriate acclimatization period was given prior to initiation of the first PK study. All handling, dosing, and blood sampling of the animals were performed by trained and skilled staff. Before the studies, the dogs were fasted overnight and from 0 to 4 hours after dosing. The dogs were restricted to water 1 hour before dosing until 4 hours after dosing, but otherwise had ad libitum access to water during the whole period.
# The compositions were administered by a single oral dosing to the dogs in groups of 6-8 dogs. […] The mouth was then closed, and 10 mL of tap water was given by syringe or gavage to facilitate swallowing of the tablet.
# One blood sample was drawn before dosing, and additional samples were drawn at predefined time points after dosing for up to 240 hours, such as up to 10 hours, to adequately cover the full plasma concentration-time absorption profile of the test substance. For each blood sample time point, approximately 0.8 mL of whole blood was collected in a 1.5 mL EDTA-coated tube, which was gently turned to mix the sample with EDTA. Blood samples were collected in EDTA buffer (8 mM) and then centrifuged at 4° C. 2000 g for 10 minutes. Plasma was pipetted into Micronic tubes on dry ice, and kept at −20° C. or lower until analysis. Blood samples were taken as appropriate, for example from a venflon in the cephalic vein in the front leg for the first 2 hours and then with syringe from the jugular vein for the rest of the time points. The first few drops were allowed to drain from the venflon to avoid heparin saline from the venflon in the sample.
# All blood samples were collected into test tubes containing EDTA for stabilisation and kept on ice until centrifugation. Plasma was separated from whole blood by centrifugation and the plasma was stored at −20° C. or lower until analysis.
# The plasma was analysed for test substance using LC-MS (Liquid Chromatography-Mass Spectrometry) as known to the person skilled in the art. […] RP-HPLC separation was achieved using a linear gradient of 1:1 acetonitrile/methanol in 1% aqueous formic acid using either: a Phenomenex Onyx Monolithic C18 column (50×2.0 mm) and a flow rate of 0.8 mL/min at 30° C.; or an Agilent Poroshell 120 SB-C18 column (50×2.1 mm, 2.7 μm) at a flow rate of 0.4 mL/min at 60° C. The mass spectrometer was operated in either positive ionization SIM mode or positive ionization PRM mode.
# For each individual animal, a plasma concentration-time profile was analysed by a non-compartmental model in Pharsight Phoenix WinNonLin ver.
row,SMILES,AUC/Dose
1,CC[C@H](C)[C@H](NC(=O)[C@H](Cc1ccccc1)NC(=O)[C@H](CCC(=O)O)NC(=O)[C@H](CCCNC(=N)N)NC(=O)[C@H](C)NC(=O)[C@H](C)NC(=O)[C@H](CCC(N)=O)NC(=O)[C@H](CCCCNC(=O)[C@@H](N)CCCCNC(=O)[C@@H](N)CCCCNC(=O)CC[C@H](NC(=O)CCCCCCCCCCCCCCCCCCC(=O)O)C(=O)O)NC(=O)[C@H](CCC(=O)O)NC(=O)[C@H](CC(C)C)NC(=O)[C@H](Cc1ccc(O)cc1)NC(=O)[C@@H](NC(=O)[C@H](CO)NC(=O)[C@H](Cc1ccc(O)cc1)NC(=O)[C@H](CC(=O)O)NC(=O)[C@H](CO)NC(=O)[C@@H](NC(=O)[C@H](Cc1ccccc1)NC(=O)[C@@H](NC(=O)CNC(=O)[C@H](CCC(=O)O)NC(=O)C(C)(C)NC(=O)[C@@H](N)Cc1ccc(O)cc1)[C@@H](C)O)[C@@H](C)O)[C@@H](C)CC)C(=O)N[C@@H](CC(N)=O)C(=O)N[C@@H](Cc1c[nH]c2ccccc12)C(=O)N[C@@H](CC(C)C)C(=O)N[C@@H](CC(C)C)C(=O)N[C@@H](C)C(=O)NCC(=O)NCC(=O)N1CCC[C@H]1C(=O)N[C@@H](CO)C(=O)N[C@@H](CO)C(=O)NCC(=O)N[C@@H](C)C(=O)N1CCC[C@H]1C(=O)N1CCC[C@H]1C(=O)N1CCC[C@H]1C(=O)N[C@@H](CO)C(=O)O [Compound No. 16] (H-Y[Aib]EGTFTSDYSIYLEK([εLys-εLys-γGlu-C20 diacid])QAAREFINWLLAGGPSSGAPPPS-OH),8.6 kg·h/L
2,CC[C@H](C)[C@H](NC(=O)[C@H](Cc1ccccc1)NC(=O)[C@H](CCC(=O)O)NC(=O)[C@H](CCCNC(=N)N)NC(=O)[C@H](C)NC(=O)[C@H](C)NC(=O)[C@H](CCC(N)=O)NC(=O)[C@H](CCCCNC(=O)[C@@H](N)CCCCNC(=O)[C@@H](N)CCCCNC(=O)CC[C@H](NC(=O)CCCCCCCCCCCCCCCCC(=O)O)C(=O)O)NC(=O)[C@H](CCC(=O)O)NC(=O)[C@H](CC(C)C)NC(=O)[C@H](CC(C)C)NC(=O)[C@@H](NC(=O)[C@H](CO)NC(=O)[C@H](Cc1ccc(O)cc1)NC(=O)[C@H](CC(=O)O)NC(=O)[C@H](CO)NC(=O)[C@@H](NC(=O)[C@H](Cc1ccccc1)NC(=O)[C@@H](NC(=O)CNC(=O)[C@H](CCC(=O)O)NC(=O)C(C)(C)NC(=O)[C@@H](N)Cc1ccc(O)cc1)[C@@H](C)O)[C@@H](C)O)[C@@H](C)CC)C(=O)N[C@@H](CC(N)=O)C(=O)N[C@@H](Cc1c[nH]c2ccccc12)C(=O)N[C@@H](CC(C)C)C(=O)N[C@@H](CC(C)C)C(=O)N[C@@H](C)C(=O)NCC(=O)NCC(=O)N1CCC[C@H]1C(=O)N[C@@H](CO)C(=O)N[C@@H](CO)C(=O)O [Compound No. 20] (H-Y[Aib]EGTFTSDYSILLEK([εLys-εLys-γGlu-C18 diacid])QAAREFINWLLAGGPSS-OH; N-terminus assumed),10.8 kg·h/L
3,CC[C@H](C)[C@H](NC(=O)[C@H](Cc1ccccc1)NC(=O)[C@H](CCC(=O)O)NC(=O)[C@H](CCC(N)=O)NC(=O)[C@H](C)NC(=O)[C@H](C)NC(=O)[C@H](CCC(N)=O)NC(=O)[C@H](CCCCNC(=O)[C@@H](N)CCCCNC(=O)[C@@H](N)CCCCNC(=O)CC[C@H](NC(=O)CCCCCCCCCCCCCCCCC(=O)O)C(=O)O)NC(=O)[C@H](CCC(=O)O)NC(=O)[C@H](CC(C)C)NC(=O)[C@H](CC(C)C)NC(=O)[C@@H](NC(=O)[C@H](CO)NC(=O)[C@H](Cc1ccc(O)cc1)NC(=O)[C@H](CC(=O)O)NC(=O)[C@H](CO)NC(=O)[C@@H](NC(=O)[C@H](Cc1ccccc1)NC(=O)[C@@H](NC(=O)CNC(=O)[C@H](CCC(=O)O)NC(=O)C(C)(C)NC(=O)[C@@H](N)Cc1ccc(O)cc1)[C@@H](C)O)[C@@H](C)O)[C@@H](C)CC)C(=O)N[C@@H](CC(N)=O)C(=O)N[C@@H](Cc1c[nH]c2ccccc12)C(=O)N[C@@H](CC(C)C)C(=O)N[C@@H](CC(C)C)C(=O)N[C@@H](C)C(=O)NCC(=O)NCC(=O)N1CCC[C@H]1C(=O)N[C@@H](CO)C(=O)N[C@@H](CO)C(=O)NCC(=O)N[C@@H](C)C(=O)N1CCC[C@H]1C(=O)N1CCC[C@H]1C(=O)N1CCC[C@H]1C(=O)N[C@@H](CO)C(=O)O [Compound No. 24] (H-Y[Aib]EGTFTSDYSILLEK([εLys-εLys-γGlu-C18 diacid])QAAQEFINWLLAGGPSSGAPPPS-OH; N-terminus assumed),16.4 kg·h/L
4,CC[C@H](C)[C@H](NC(=O)[C@H](Cc1ccccc1)NC(=O)[C@H](CCC(=O)O)NC(=O)[C@H](CCC(=O)O)NC(=O)[C@H](C)NC(=O)[C@H](C)NC(=O)[C@H](CCC(N)=O)NC(=O)[C@H](CCCCNC(=O)[C@@H](N)CCCCNC(=O)[C@@H](N)CCCCNC(=O)CC[C@H](NC(=O)CCCCCCCCCCCCCCCCC(=O)O)C(=O)O)NC(=O)[C@H](CCC(=O)O)NC(=O)[C@H](CC(C)C)NC(=O)[C@H](CC(C)C)NC(=O)[C@@H](NC(=O)[C@H](CO)NC(=O)[C@H](Cc1ccc(O)cc1)NC(=O)[C@H](CC(=O)O)NC(=O)[C@H](CO)NC(=O)[C@@H](NC(=O)[C@H](Cc1ccccc1)NC(=O)[C@@H](NC(=O)CNC(=O)[C@H](CCC(=O)O)NC(=O)C(C)(C)NC(=O)[C@@H](N)Cc1ccc(O)cc1)[C@@H](C)O)[C@@H](C)O)[C@@H](C)CC)C(=O)N[C@@H](CC(N)=O)C(=O)N[C@@H](Cc1c[nH]c2ccccc12)C(=O)N[C@@H](CC(C)C)C(=O)N[C@@H](CC(C)C)C(=O)N[C@@H](C)C(=O)NCC(=O)NCC(=O)N1CCC[C@H]1C(=O)N[C@@H](CO)C(=O)N[C@@H](CO)C(=O)NCC(=O)N[C@@H](C)C(=O)N1CCC[C@H]1C(=O)N1CCC[C@H]1C(=O)N1CCC[C@H]1C(=O)N[C@@H](CO)C(=O)O [Compound No. 25] (H-Y[Aib]EGTFTSDYSILLEK([εLys-εLys-γGlu-C18 diacid])QAAEEFINWLLAGGPSSGAPPPS-OH),15.2 kg·h/L
5,CC[C@H](C)[C@H](NC(=O)[C@H](Cc1ccccc1)NC(=O)[C@H](CCC(=O)O)NC(=O)[C@H](Cc1c[nH]cn1)NC(=O)[C@H](C)NC(=O)[C@H](C)NC(=O)[C@H](CCC(N)=O)NC(=O)[C@H](CCCCNC(=O)[C@@H](N)CCCCNC(=O)[C@@H](N)CCCCNC(=O)CC[C@H](NC(=O)CCCCCCCCCCCCCCCCC(=O)O)C(=O)O)NC(=O)[C@H](CCC(=O)O)NC(=O)[C@H](CC(C)C)NC(=O)[C@H](CC(C)C)NC(=O)[C@@H](NC(=O)[C@H](CO)NC(=O)[C@H](Cc1ccc(O)cc1)NC(=O)[C@H](CC(=O)O)NC(=O)[C@H](CO)NC(=O)[C@@H](NC(=O)[C@H](Cc1ccccc1)NC(=O)[C@@H](NC(=O)CNC(=O)[C@H](CCC(=O)O)NC(=O)C(C)(C)NC(=O)[C@@H](N)Cc1ccc(O)cc1)[C@@H](C)O)[C@@H](C)O)[C@@H](C)CC)C(=O)N[C@@H](CC(N)=O)C(=O)N[C@@H](Cc1c[nH]c2ccccc12)C(=O)N[C@@H](CC(C)C)C(=O)N[C@@H](CC(C)C)C(=O)N[C@@H](C)C(=O)NCC(=O)NCC(=O)N1CCC[C@H]1C(=O)N[C@@H](CO)C(=O)N[C@@H](CO)C(=O)NCC(=O)N[C@@H](C)C(=O)N1CCC[C@H]1C(=O)N1CCC[C@H]1C(=O)N1CCC[C@H]1C(=O)N[C@@H](CO)C(=O)O [Compound No. 26] (H-Y[Aib]EGTFTSDYSILLEK([εLys-εLys-γGlu-C18 diacid])QAAHEFINWLLAGGPSSGAPPPS-OH),27.4* kg*h/L
